From PMC10176470, “Engaging a Non-catalytic Cysteine Residue Drives Potent and Selective Inhibition of Caspase-6” (Journal of the American Chemical Society, 2023)

Experiments:
Format in all cases: cell-based
[1] = molecular target: proteins of HEK293T cells transiently overexpressing caspase-6 (Homo sapiens, UniProt P26599); conditions: exp_ref Probe; protein PTBP1 (P26599); analysis C6
[2] = molecular target: proteins of HEK293T cells transiently overexpressing caspase-6 (Homo sapiens, UniProt P43243); conditions: exp_ref Probe; protein MATR3 (P43243); analysis C6
[3] = molecular target: T1, proteins of HEK293T cells transiently overexpressing caspase-6 (Homo sapiens, UniProt Q8WUM4); conditions: protein PDCD6IP (Q8WUM4); exp_ref Probe; analysis C6
T1 sequence (Q8WUM4 1-868): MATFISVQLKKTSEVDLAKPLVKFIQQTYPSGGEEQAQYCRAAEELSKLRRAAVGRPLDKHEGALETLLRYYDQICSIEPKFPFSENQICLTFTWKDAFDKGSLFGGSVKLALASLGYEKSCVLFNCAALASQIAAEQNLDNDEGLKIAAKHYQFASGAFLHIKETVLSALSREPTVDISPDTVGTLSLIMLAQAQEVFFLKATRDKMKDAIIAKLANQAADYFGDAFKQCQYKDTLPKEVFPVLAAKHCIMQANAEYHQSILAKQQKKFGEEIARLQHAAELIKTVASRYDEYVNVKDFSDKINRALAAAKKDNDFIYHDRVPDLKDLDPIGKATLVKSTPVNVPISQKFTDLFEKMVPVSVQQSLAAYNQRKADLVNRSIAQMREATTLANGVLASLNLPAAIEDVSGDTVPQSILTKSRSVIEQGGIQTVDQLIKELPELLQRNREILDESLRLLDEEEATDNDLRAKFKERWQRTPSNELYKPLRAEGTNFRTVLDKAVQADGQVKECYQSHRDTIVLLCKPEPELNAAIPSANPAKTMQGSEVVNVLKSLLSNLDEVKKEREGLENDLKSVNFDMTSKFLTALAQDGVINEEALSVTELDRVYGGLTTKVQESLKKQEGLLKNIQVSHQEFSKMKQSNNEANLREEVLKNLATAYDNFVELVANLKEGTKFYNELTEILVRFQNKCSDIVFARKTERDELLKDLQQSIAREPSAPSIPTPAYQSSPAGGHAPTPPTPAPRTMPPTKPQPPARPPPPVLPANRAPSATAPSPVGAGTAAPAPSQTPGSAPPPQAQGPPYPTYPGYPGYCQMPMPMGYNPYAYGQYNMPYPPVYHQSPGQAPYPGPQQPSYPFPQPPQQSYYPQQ

[4] = molecular target: T2, proteins of HEK293T cells transiently overexpressing caspase-6 (Homo sapiens, UniProt Q14103); conditions: protein HNRNPD (Q14103)
T2 sequence (Q14103 1-355): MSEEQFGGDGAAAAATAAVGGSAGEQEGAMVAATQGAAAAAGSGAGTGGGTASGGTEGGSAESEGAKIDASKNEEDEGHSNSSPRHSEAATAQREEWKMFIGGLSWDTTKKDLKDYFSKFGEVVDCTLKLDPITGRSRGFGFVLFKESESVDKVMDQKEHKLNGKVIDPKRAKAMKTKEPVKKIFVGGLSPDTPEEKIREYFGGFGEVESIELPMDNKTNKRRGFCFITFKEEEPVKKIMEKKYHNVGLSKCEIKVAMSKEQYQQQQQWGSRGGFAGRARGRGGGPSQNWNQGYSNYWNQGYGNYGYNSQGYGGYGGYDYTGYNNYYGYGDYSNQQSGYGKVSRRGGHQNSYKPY

[5] = molecular target: proteins of HEK293T cells transiently overexpressing caspase-6 (Homo sapiens, UniProt P09211); conditions: exp_ref Probe; protein GSTP1 (P09211); analysis C6
[6] = molecular target: proteins of HEK293T cells transiently overexpressing caspase-6 (Homo sapiens, UniProt Q6P2Q9); conditions: exp_ref Probe; protein PRPF8 (Q6P2Q9); analysis C6
[7] = molecular target: proteins of HEK293T cells transiently overexpressing caspase-6 (Homo sapiens, UniProt P29692); conditions: exp_ref Probe; protein EEF1D (P29692); analysis C6
[8] = molecular target: proteins of HEK293T cells transiently overexpressing caspase-6 (Homo sapiens, UniProt P50991); conditions: exp_ref Probe; protein CCT4 (P50991); analysis C6
[9] = molecular target: proteins of HEK293T cells transiently overexpressing caspase-6 (Homo sapiens, UniProt Q13347); conditions: protein EIF3I (Q13347); exp_ref Probe; analysis C6
[10] = molecular target: proteins of HEK293T cells transiently overexpressing caspase-6 (Homo sapiens, UniProt P02533); conditions: Probe; protein KRT14 P02533
[11] = molecular target: proteins of HEK293T cells transiently overexpressing caspase-6 (Homo sapiens, UniProt P62633); conditions: exp_ref Probe; protein CNBP (P62633); analysis C6
[12] = molecular target: proteins of HEK293T cells transiently overexpressing caspase-6 (Homo sapiens, UniProt P61619); conditions: exp_ref Probe; protein SEC61A1 (P61619); analysis C6
Chain of proteins of HEK293T cells transiently overexpressing caspase-6 (Homo sapiens, UniProt P61619) (P61619 whole entry): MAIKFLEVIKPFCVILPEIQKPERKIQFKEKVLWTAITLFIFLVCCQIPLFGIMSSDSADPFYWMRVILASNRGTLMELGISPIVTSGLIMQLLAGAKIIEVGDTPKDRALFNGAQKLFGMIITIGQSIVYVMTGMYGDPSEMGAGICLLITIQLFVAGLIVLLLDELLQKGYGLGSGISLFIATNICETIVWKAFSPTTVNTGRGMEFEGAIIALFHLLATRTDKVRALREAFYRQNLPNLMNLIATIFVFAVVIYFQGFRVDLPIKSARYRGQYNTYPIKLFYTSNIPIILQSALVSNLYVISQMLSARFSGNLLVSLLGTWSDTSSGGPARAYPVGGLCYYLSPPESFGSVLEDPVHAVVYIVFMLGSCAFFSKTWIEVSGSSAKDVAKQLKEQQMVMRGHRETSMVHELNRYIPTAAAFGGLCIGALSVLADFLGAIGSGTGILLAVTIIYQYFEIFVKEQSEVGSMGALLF

Chain of proteins of HEK293T cells transiently overexpressing caspase-6 (Homo sapiens, UniProt P02533) (P02533 whole entry): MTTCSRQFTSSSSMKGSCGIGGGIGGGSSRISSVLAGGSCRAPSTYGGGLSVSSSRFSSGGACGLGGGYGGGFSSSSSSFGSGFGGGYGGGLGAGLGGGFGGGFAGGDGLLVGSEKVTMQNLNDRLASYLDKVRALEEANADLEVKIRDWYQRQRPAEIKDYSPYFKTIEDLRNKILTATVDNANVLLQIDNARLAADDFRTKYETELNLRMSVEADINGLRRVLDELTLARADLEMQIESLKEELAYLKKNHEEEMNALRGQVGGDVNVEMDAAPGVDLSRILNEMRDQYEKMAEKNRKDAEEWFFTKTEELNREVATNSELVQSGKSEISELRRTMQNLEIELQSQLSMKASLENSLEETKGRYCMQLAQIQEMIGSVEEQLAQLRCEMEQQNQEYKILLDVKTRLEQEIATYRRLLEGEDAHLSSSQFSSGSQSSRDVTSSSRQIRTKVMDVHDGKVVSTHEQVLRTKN
Chain of proteins of HEK293T cells transiently overexpressing caspase-6 (Homo sapiens, UniProt P62633) (P62633 whole entry): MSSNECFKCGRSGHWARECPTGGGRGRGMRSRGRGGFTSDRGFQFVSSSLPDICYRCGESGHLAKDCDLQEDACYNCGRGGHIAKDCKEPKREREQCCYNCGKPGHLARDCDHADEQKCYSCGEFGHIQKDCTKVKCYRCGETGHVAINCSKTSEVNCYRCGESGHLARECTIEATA
Chain of proteins of HEK293T cells transiently overexpressing caspase-6 (Homo sapiens, UniProt P29692) (P29692 whole entry): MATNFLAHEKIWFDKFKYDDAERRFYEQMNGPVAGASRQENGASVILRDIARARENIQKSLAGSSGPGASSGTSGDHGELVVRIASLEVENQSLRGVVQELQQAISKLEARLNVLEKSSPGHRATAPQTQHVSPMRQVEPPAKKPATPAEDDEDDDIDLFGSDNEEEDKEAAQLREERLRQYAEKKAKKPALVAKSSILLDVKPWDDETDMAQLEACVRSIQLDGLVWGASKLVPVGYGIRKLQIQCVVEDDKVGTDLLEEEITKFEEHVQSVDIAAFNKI
Chain of proteins of HEK293T cells transiently overexpressing caspase-6 (Homo sapiens, UniProt Q13347) (Q13347 whole entry): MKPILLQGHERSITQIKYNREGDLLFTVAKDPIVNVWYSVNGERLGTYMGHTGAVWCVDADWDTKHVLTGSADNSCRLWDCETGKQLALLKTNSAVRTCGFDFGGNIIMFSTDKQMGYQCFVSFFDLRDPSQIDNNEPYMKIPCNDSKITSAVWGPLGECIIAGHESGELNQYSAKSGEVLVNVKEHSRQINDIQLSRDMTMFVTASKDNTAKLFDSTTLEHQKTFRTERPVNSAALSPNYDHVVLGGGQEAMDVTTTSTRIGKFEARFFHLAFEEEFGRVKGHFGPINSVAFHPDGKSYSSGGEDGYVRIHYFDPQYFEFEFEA
Chain of proteins of HEK293T cells transiently overexpressing caspase-6 (Homo sapiens, UniProt P26599) (P26599 whole entry): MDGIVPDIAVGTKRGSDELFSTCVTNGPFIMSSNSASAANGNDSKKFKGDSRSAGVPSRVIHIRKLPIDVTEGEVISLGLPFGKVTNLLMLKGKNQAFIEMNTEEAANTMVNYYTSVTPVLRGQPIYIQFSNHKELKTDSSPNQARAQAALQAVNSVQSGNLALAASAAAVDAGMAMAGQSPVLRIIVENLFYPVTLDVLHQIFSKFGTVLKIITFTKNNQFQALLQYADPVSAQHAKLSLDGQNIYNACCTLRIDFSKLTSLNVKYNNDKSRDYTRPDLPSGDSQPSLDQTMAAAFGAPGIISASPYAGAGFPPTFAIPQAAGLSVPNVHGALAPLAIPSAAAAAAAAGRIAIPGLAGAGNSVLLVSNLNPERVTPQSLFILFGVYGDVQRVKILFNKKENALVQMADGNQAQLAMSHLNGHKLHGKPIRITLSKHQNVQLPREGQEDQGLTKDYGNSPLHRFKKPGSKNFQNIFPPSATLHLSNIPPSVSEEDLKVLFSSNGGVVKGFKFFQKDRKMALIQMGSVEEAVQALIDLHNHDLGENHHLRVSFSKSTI
Chain of proteins of HEK293T cells transiently overexpressing caspase-6 (Homo sapiens, UniProt P43243) (P43243 whole entry): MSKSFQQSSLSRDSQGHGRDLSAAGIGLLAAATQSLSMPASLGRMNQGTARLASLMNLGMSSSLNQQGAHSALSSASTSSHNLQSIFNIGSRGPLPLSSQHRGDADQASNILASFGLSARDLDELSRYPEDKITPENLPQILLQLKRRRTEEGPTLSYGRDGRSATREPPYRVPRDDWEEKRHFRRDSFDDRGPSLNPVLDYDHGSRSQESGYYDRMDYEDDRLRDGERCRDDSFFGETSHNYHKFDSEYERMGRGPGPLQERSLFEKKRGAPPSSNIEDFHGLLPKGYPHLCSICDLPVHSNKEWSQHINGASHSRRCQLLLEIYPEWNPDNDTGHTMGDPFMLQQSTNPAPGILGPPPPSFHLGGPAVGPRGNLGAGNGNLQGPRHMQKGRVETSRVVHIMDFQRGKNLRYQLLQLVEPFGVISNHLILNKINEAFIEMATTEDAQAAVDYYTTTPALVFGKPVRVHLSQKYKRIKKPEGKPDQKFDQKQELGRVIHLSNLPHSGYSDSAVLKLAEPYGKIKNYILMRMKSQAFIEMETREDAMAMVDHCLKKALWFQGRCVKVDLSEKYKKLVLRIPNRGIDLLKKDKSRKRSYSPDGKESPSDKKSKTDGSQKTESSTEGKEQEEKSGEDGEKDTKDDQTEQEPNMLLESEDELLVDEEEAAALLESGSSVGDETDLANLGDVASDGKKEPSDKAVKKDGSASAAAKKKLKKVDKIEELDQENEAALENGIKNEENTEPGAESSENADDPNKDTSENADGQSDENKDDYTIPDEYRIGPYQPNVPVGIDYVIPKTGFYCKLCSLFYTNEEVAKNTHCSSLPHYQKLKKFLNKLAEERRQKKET
Chain of proteins of HEK293T cells transiently overexpressing caspase-6 (Homo sapiens, UniProt P50991) (P50991 whole entry): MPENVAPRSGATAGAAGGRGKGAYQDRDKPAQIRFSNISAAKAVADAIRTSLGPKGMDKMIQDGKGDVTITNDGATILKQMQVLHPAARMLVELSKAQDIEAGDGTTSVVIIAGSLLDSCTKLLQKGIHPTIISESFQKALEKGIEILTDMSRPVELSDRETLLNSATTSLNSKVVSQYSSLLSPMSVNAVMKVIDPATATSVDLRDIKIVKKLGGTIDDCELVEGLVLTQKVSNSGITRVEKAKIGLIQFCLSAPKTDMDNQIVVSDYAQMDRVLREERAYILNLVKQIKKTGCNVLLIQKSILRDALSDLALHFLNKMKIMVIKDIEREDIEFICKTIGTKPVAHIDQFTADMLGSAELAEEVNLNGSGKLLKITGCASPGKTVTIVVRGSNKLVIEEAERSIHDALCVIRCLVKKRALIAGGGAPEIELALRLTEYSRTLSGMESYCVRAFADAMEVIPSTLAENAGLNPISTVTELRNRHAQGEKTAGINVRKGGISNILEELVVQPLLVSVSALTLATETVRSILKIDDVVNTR
Chain of proteins of HEK293T cells transiently overexpressing caspase-6 (Homo sapiens, UniProt P09211) (P09211 whole entry): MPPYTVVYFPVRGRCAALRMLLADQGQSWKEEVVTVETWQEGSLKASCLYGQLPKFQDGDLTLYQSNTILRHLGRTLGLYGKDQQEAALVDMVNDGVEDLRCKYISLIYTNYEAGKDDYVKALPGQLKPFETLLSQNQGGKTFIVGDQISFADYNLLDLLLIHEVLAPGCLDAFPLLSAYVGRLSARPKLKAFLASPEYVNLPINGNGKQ

With `C#CCOc1ccc([C@@H]2C[C@@H](C(=O)Nc3ccc(OC(F)(F)F)cc3)CN(S(=O)(=O)C=C)C2)cc1` (relative stereo) [13-t] the enrich.exp.med [1] was 0.1008, the enrich.exp.med [2] was 0.5323 and the enrich.exp.med [3] was 1.9. It also gave an enrich.exp.med ([4]; exp_ref Probe, analysis C6) of -0.3533, an enrich.exp.med.lin [4] of 0.7828 and an enrich.exp.med.log2 [4] of -0.3533. It also gave an enrich.exp.med [5] of 0.03311, an enrich.exp.med [6] of 0.2125 and an enrich.exp.med [7] of 0.2193. For the same compound, the enrich.exp.med [8] was 0.3881, the enrich.exp.med [9] was 1.576 and the enrich.exp.med [10] was -2.018. The enrich.exp.med [11] was -0.4177 and the enrich.exp.med [12] was 0.5807.
